This passage reports IC50 and inhibition results from ChEMBL document CHEMBL1146136, “Optimization of 2,4-diaminopyrimidines as GHS-R antagonists: side chain exploration” (Bioorg Med Chem Lett, 2006).

The target in assay [1] is T1, Growth hormone secretagogue receptor type 1 (Homo sapiens, UniProt Q92847). As to the kind of experiment: Inhibition of human GHS receptor by FLIPR. Format: functional.
The target of assay [2] is T1, Growth hormone secretagogue receptor type 1. The experiment in a line: Inhibition of human GHS receptor by binding assay.
The target in assay [3] is T2, Dihydrofolate reductase (Homo sapiens) (UniProt P00374).
T2 sequence (whole entry): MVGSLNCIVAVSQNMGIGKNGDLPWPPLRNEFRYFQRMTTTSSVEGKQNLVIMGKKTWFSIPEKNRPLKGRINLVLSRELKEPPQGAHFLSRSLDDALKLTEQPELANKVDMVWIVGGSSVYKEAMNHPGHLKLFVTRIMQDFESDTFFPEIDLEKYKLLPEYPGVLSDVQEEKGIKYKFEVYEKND
As to the kind of experiment: Inhibition of human DHFR receptor at 1 uM.

In assay [4] the target is T2, Dihydrofolate reductase (Homo sapiens). The experiment in a line: Inhibition of human DHFR receptor at 10 uM.
The target is the same in assay [5]. The experiment in a line: Inhibition of human DHFR receptor at 30 uM.

As a reminder, the IC50 is the point on the concentration scale where inhibition reaches its midpoint. By inhibition is commonly meant the percentage by which the read-out fell short of the control. Read a low inhibition as a response near the control.

T1 sequence (Q92847 whole entry): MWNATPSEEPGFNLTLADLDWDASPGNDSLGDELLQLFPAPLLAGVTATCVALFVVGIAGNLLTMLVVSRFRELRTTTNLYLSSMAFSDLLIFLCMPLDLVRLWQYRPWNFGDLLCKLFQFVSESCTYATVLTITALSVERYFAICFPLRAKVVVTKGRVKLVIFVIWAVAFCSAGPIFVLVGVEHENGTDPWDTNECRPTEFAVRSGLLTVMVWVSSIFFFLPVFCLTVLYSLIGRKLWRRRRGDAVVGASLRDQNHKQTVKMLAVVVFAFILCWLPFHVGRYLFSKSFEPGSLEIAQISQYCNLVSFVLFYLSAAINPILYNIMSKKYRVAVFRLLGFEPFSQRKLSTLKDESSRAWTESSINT

With `CCc1nc(N)nc(NC2CC2)c1-c1ccc(NCc2ccc(S(C)(=O)=O)cc2)cc1`, the IC50 in assay [1] is over 10000 nM; in assay [2], 601 nM.
Turning to `CCCCc1nc(N)nc(N)c1-c1ccc(NCc2ccc(S(C)(=O)=O)cc2)cc1`, the IC50 in assay [1] is 32 nM; in assay [2] it was 11 nM.
On to `CS(=O)(=O)c1ccc(CNc2ccc(-c3c(N)nc(N)nc3CN3CCc4ccccc4C3)cc2)cc1`, for which inhibition in assay [1] was half-maximal at 41 nM (IC50). For the same compound, the results for the inhibition in assay [3] and in assay [4] were 29% and 58%, respectively.
For `CS(=O)(=O)c1ccc(CNc2ccc(-c3c(N)nc(N)nc3C3CC3)cc2)cc1`, inhibition in assay [1] was half-maximal at 19 nM (IC50).
On to `CCCCCCCCc1nc(N)nc(N)c1-c1ccc(NCc2ccc(S(C)(=O)=O)cc2)cc1`, for which the IC50 in assay [1] came out at 57 nM; in assay [2] it was 5.2 nM.
For `CCc1nc(N)nc(N2CCOCC2)c1-c1ccc(NCc2ccc(S(C)(=O)=O)cc2)cc1`, the half-maximal inhibitory concentration (IC50) in assay [1] is over 10000 nM; in assay [2], 3250 nM.
For the compound `CCCCNc1nc(N)nc(CC)c1-c1ccc(NCc2ccc(S(C)(=O)=O)cc2)cc1`, the IC50 in assay [1] amounted to 736 nM; in assay [2], 276 nM.
For the compound `CS(=O)(=O)c1ccc(CNc2ccc(-c3c(N)nc(N)nc3C3COc4ccccc4O3)cc2)cc1` (stereo not given), the IC50 in assay [1] came out at 180 nM.
Turning to `CC(C)=CCOCc1nc(N)nc(N)c1-c1ccc(NCc2ccc(S(C)(=O)=O)cc2)cc1`, the IC50 was 1.9 nM in assay [1] and 0.4 nM in assay [2].
Taken in the same sequence, the figures for `CCNc1nc(N)nc(CC)c1-c1ccc(NCc2ccc(S(C)(=O)=O)cc2)cc1` were over 10000 nM and 244 nM.
The like results for `CN(C)Cc1nc(N)nc(N)c1-c1ccc(NCc2ccc(S(C)(=O)=O)cc2)cc1` were, in that order, 2580 nM and 186 nM.
The like results for `CS(=O)(=O)c1ccc(CNc2ccc(-c3c(N)nc(N)nc3COCc3cccnc3)cc2)cc1` were, in that order, 187 nM and 38 nM.
Consider `CCc1nc(N)nc(N)c1-c1ccc(NCc2ccc(S(C)(=O)=O)cc2)cc1`, for which the IC50 in assay [1] was found to be 37 nM; in assay [2], 9.7 nM. In addition, the inhibition in assay [3] and in assay [4] was over 99% in each case.
In the case of `CS(=O)(=O)c1ccc(CNc2ccc(-c3c(N)nc(N)nc3C3Cc4ccccc4O3)cc2)cc1` (stereo not given), the IC50 in assay [1] came to 38 nM.
In turn, `CS(=O)(=O)c1ccc(CNc2ccc(-c3c(N)nc(N)nc3C3CCCCC3)cc2)cc1` yielded an IC50 in assay [1] of 36 nM. The inhibition is 16% in assay [3] and 50% in assay [4].
For the compound `CN(Cc1nc(N)nc(N)c1-c1ccc(NCc2ccc(S(C)(=O)=O)cc2)cc1)c1ccccc1`, the results for the IC50 in assay [1] and in assay [2] were 9 nM and 2.5 nM, respectively. In addition, the inhibition in assay [3] came out at 42%; in assay [4], 84%.
Take `CS(=O)(=O)c1ccc(CNc2ccc(-c3c(N)nc(N)nc3CN3Cc4ccccc4C3)cc2)cc1`: the IC50 in assay [1] is 34 nM.
`CC(C)(C)c1nc(N)nc(N)c1-c1ccc(NCc2ccc(S(C)(=O)=O)cc2)cc1` showed an IC50 in assay [1] of 11 nM. Further, the inhibition was determined as 47% in assay [3] and 87% in assay [4].
Take `CCc1nc(N)nc(Nc2ccccc2)c1-c1ccc(NCc2ccc(S(C)(=O)=O)cc2)cc1`: the values for the IC50 in assay [1] and in assay [2] were over 10000 nM and 700 nM, respectively.
`CCOC(=O)CCc1nc(N)nc(N)c1-c1ccc(NCc2ccc(S(C)(=O)=O)cc2)cc1`: it took 82 nM to reach half-maximal inhibition in assay [1] (IC50).
Regarding `CCc1nc(N)nc(NCCO)c1-c1ccc(NCc2ccc(S(C)(=O)=O)cc2)cc1`, the values for the IC50 in assay [1] and in assay [2] were 3080 nM and 354 nM, respectively.
The like results for `CS(=O)(=O)c1ccc(CNc2ccc(-c3c(N)nc(N)nc3CNCC3CCCC3)cc2)cc1` were, in that order, 316 nM and 16 nM.
Taken in the same sequence, the figures for `CN(Cc1ccccc1)Cc1nc(N)nc(N)c1-c1ccc(NCc2ccc(S(C)(=O)=O)cc2)cc1` were 69 nM and 4 nM.
For `CS(=O)(=O)c1ccc(CNc2ccc(-c3c(N)nc(N)nc3COCc3ccccc3)cc2)cc1`, the IC50 amounted to 7.1 nM in assay [1] and 0.3 nM in assay [2].
Take `Cc1ccc(COCc2nc(N)nc(N)c2-c2ccc(NCc3ccc(S(C)(=O)=O)cc3)cc2)o1`: the IC50 in assay [1] came out at 9.7 nM; in assay [2], 3.4 nM.
With `CCc1nc(N)nc(N(C)C)c1-c1ccc(NCc2ccc(S(C)(=O)=O)cc2)cc1`, the IC50 is 772 nM in assay [1] and 192 nM in assay [2].
For `Cc1cc(C)cc(CNC(=O)CCc2nc(N)nc(N)c2-c2ccc(NCc3ccc(S(C)(=O)=O)cc3)cc2)c1`, the IC50 in assay [1] is 3 nM; in assay [2] it was 0.4 nM. Further, the inhibition in assay [3] was determined as 82%; in assay [4], 93%.
`CC(C)CCNCc1nc(N)nc(N)c1-c1ccc(NCc2ccc(S(C)(=O)=O)cc2)cc1`: the results for the IC50 in assay [1] and in assay [2] were 1420 nM and 61 nM, respectively.
With `CC(C)c1nc(N)nc(N)c1-c1ccc(NCc2ccc(S(C)(=O)=O)cc2)cc1`, the IC50 in assay [1] is 14 nM; in assay [2], 5.4 nM.
For the compound `CC(C)CCOCc1nc(N)nc(N)c1-c1ccc(NCc2ccc(S(C)(=O)=O)cc2)cc1`, the IC50 in assay [1] was 6.8 nM; in assay [2] it was 2.8 nM. For the same compound, the values for the inhibition in assay [3] and in assay [4] were 88% and 97%, respectively.
With `CC(C)Cc1nc(N)nc(N)c1-c1ccc(NCc2ccc(S(C)(=O)=O)cc2)cc1`, the figures for the IC50 in assay [1] and in assay [2] were 40 nM and 10 nM, respectively.
For `COCc1nc(N)nc(N)c1-c1ccc(NCc2ccc(S(C)(=O)=O)cc2)cc1`, the figures for the IC50 in assay [1] and in assay [2] were 53 nM and 7.5 nM, respectively.
Consider `CCc1nc(N)nc(NC)c1-c1ccc(NCc2ccc(S(C)(=O)=O)cc2)cc1`, for which the values for the IC50 in assay [1] and in assay [2] were 69 nM and 37 nM, respectively. For the same compound, the inhibition amounted to 41% in assay [3] and 82% in assay [4].
Take `CCCCCCc1nc(N)nc(N)c1-c1ccc(NCc2ccc(S(C)(=O)=O)cc2)cc1`: the results for the IC50 in assay [1] and in assay [2] were 62 nM and 6 nM, respectively.
Consider `CS(=O)(=O)c1ccc(CNc2ccc(-c3c(N)nc(N)nc3CNCc3ccccc3)cc2)cc1`, for which the IC50 in assay [1] is 49 nM; in assay [2], 96 nM.
In turn, `CS(=O)(=O)c1ccc(CNc2ccc(-c3c(N)nc(N)nc3CN3CCc4ccccc43)cc2)cc1` had an IC50 in assay [1] of 13 nM.
On to `CS(=O)(=O)c1ccc(CNc2ccc(-c3c(N)nc(N)nc3CNC3CCCC3)cc2)cc1`, for which the IC50 in assay [1] is 3430 nM; in assay [2], 122 nM.
On to `CS(=O)(=O)c1ccc(CNc2ccc(-c3c(N)nc(N)nc3CCC(=O)NCc3cccc(Cl)c3)cc2)cc1`, for which the IC50 in assay [1] was 5.4 nM; in assay [2], 2 nM.
In assay [1], `CS(=O)(=O)c1ccc(CNc2ccc(-c3c(N)nc(N)nc3[C@H]3CCCO3)cc2)cc1` had a 50% inhibitory concentration (IC50) of 57 nM. Also, in assay [4], the inhibition worked out at 84%.
Regarding `CS(=O)(=O)c1ccc(CNc2ccc(-c3c(N)nc(N)nc3C3CCC3)cc2)cc1`, in assay [1], it took 14 nM to reach half-maximal inhibition (IC50).
Take `CNCc1nc(N)nc(N)c1-c1ccc(NCc2ccc(S(C)(=O)=O)cc2)cc1`: the IC50 in assay [1] stood at 1380 nM; in assay [2], 279 nM.
In assay [1], `CS(=O)(=O)c1ccc(CNc2ccc(-c3c(N)nc(N)nc3C3CC4CCC3C4)cc2)cc1` (stereo not given) returned an IC50 of 137 nM. Further, the inhibition in assay [3] came to 3%; in assay [4], 21%.
As to `CCCNc1nc(N)nc(CC)c1-c1ccc(NCc2ccc(S(C)(=O)=O)cc2)cc1`, the figures for the IC50 in assay [1] and in assay [2] were 237 nM and 151 nM, respectively.
For `CS(=O)(=O)c1ccc(CNc2ccc(-c3c(N)nc(N)nc3CN)cc2)cc1`, the IC50 in assay [1] was 7160 nM; in assay [2], 634 nM.
`CS(=O)(=O)c1ccc(CNc2ccc(-c3c(N)nc(N)nc3[C@H]3CC4C=CC3C4)cc2)cc1` (stereo not given in full): the inhibition is 55% in assay [5] and 38% in assay [4]. In addition, the half-inhibitory concentration (IC50) in assay [1] was determined as 66 nM.
Take `CCc1nc(N)nc(NCc2ccccc2)c1-c1ccc(NCc2ccc(S(C)(=O)=O)cc2)cc1`: the concentration for half-maximal inhibition (IC50) was 354 nM in assay [1] and 248 nM in assay [2].
For `CS(=O)(=O)c1ccc(CNc2ccc(-c3c(N)nc(N)nc3[C@@H]3CCCO3)cc2)cc1`, the inhibition in assay [5] is 38%; in assay [4], 25%. For the same compound, the IC50 in assay [1] was 54 nM.
`CS(=O)(=O)c1ccc(CNc2ccc(-c3c(N)nc(N)nc3CNC3CC3)cc2)cc1`: the IC50 in assay [1] was 945 nM; in assay [2], 65 nM.
For the compound `CCCCCc1nc(N)nc(N)c1-c1ccc(NCc2ccc(S(C)(=O)=O)cc2)cc1`, the values for the IC50 in assay [1] and in assay [2] were 211 nM and 19 nM, respectively.
The like results for `CS(=O)(=O)c1ccc(CNc2ccc(-c3c(N)nc(N)nc3COCc3ccco3)cc2)cc1` were, in that order, 9.6 nM and 2.7 nM.
For the compound `CS(=O)(=O)c1ccc(CNc2ccc(-c3c(N)nc(N)nc3CNc3ccccc3)cc2)cc1`, the IC50 in assay [1] worked out at 9.1 nM; in assay [2], 5.5 nM.
In assay [1], `CS(=O)(=O)c1ccc(CNc2ccc(-c3c(N)nc(N)nc3[C@@H]3CC4C=CC3C4)cc2)cc1` (stereo not given in full) displayed an IC50 of 283 nM. The same compound gave an inhibition in assay [4] of 45%.
In assay [1], `CS(=O)(=O)c1ccc(CNc2ccc(-c3c(N)nc(N)nc3C3CCCC3)cc2)cc1` registered an IC50 of 21 nM. Further, the figures for the inhibition in assay [3] and in assay [4] were 73% and 97%, respectively.
Take `CCc1nc(N)nc(N(CC)CC)c1-c1ccc(NCc2ccc(S(C)(=O)=O)cc2)cc1`: the IC50 in assay [1] came to 380 nM; in assay [2] it was 450 nM.
As to `CN(Cc1nc(N)nc(N)c1-c1ccc(NCc2ccc(S(C)(=O)=O)cc2)cc1)c1ccc(F)cc1`, in assay [1], the IC50 stood at 10 nM.
Take `CCc1nc(N)nc(NCC(C)C)c1-c1ccc(NCc2ccc(S(C)(=O)=O)cc2)cc1`: the IC50 in assay [1] stood at 2480 nM; in assay [2], 199 nM.
As for `CS(=O)(=O)c1ccc(CNc2ccc(-c3c(N)nc(N)nc3CNc3ccc(F)cc3)cc2)cc1`, the IC50 in assay [1] worked out at 12 nM; in assay [2] it was 1.5 nM.
`CCCCCCCc1nc(N)nc(N)c1-c1ccc(NCc2ccc(S(C)(=O)=O)cc2)cc1`: the IC50 amounted to 38 nM in assay [1] and 6 nM in assay [2].
